A melting point compilation (Tetko et al.; mined from patent text by program, amines drawn as free bases though some values may be those of a salt)
Non-standard residues stand in square brackets, D forms with d. Residues, ends and D or L forms follow the SMILES beside them. *: point of attachment. Tos = Cc1ccc(S(=O)(=O)*)cc1; OBn = c1ccc(CO*)cc1; Sar = CNCC(=O)O

First: Cc1nc(N)c2nc(CO)n(NC3CCCCC3)c2c1C
Second: Cc1nc2c(N)nc3ccccc3c2n1CCOCCS(C)(=O)=O
The melting point of the first is higher: over 250 °C for the first, 214 to 217 °C for the second.

First: CC(C)SC[C@@H](C[C@H](O)[C@H](CC1CCCCC1)C(=O)OC(C)(C)C)C(C)C
Second: CC(=O)N(C(=NC1CCCCC1)ON=C(C)C)C1CCCCC1
The melting point of the first is higher: 107 to 108 °C for the first, 74 to 78 °C for the second.

Compared with `Cc1cc(C)c(NC(=S)C2(C)CCc3c(C)c(O)c(C)c(C)c3O2)cc1C` (centres undefined), `Cc1cc(-c2noc3cc(O)ccc23)ccc1O` is higher in melting point: 124 to 125 °C for the first, 233 to 235 °C for the second.

First: CCCOc1ccc(S(=O)(=O)N2CCN(C)CC2)cc1-c1nc2cc3ncn(Cc4cccc(Cl)c4)c3cc2c(=O)[nH]1
Second: CCC1CC(=O)N(Cc2cccc(NS(C)(=O)=O)c2)N=C1c1ccc(OC)c(OC2CCCC2)c1 (centres undefined)
The melting point of the first is higher: 198 to 200 °C for the first, 113 °C for the second.

First: BrCCCCCCCOc1nc(-c2ccccc2)c(-c2ccccc2)n1-c1ccccc1
Second: Cc1c(-c2ccccc2)n(Cc2ccccc2)c2ccc(-c3ccc(OCC#N)cc3)cc12
The melting point of the first is lower: 97 to 99 °C for the first, 140 °C for the second.

First: COc1cc(OC)c(-c2cc3ccccc3n2C)cc1C=CC(=O)c1ccc(S(=O)(=O)Nc2cc(C)on2)cc1
Second: COCCOCCOc1cc(OC)c(-c2cccs2)cc1/C=C/C(=O)c1ccc(C(=O)O)cc1
The melting point of the first is higher: 220 °C for the first, 145 to 146 °C for the second.

Compared with `CCCCCCCSC[C@H](N[C@@H](C)C(=O)N1CCC[C@H]1C(=O)O)C(=O)O`, `C=CC(=O)OCC(=O)OCCCCCCOC(=O)COC(=O)C=C` is lower in melting point: 75 to 83 °C for the first, 66 °C for the second.

Compared with `CCc1c2cccccc-2[nH]c1=O`, `c1ccc(SCc2cc3ccccc3[nH]2)cc1` is lower in melting point: 166 to 171 °C for the first, 100 to 102 °C for the second.

Compared with `O=C(Nc1ccc(C(=O)N2Cc3cccn3Cc3ccccc32)cc1)c1ccccc1F`, `O=C(CSc1ccnc2ccccc12)c1ccc(OCc2ccccc2)cc1` is lower in melting point: 257 to 260 °C for the first, 135 to 136 °C for the second.

First: CCn1cc(C(=O)O)c(=O)c2cc(F)c(N3CCN(C(=O)OC(OC(=O)C(C)c4ccc(CC(C)C)cc4)C(=O)OC(C)C)CC3)cc21 (centres undefined)
Second: CC(C)(C)OC(=O)N1CCN(c2ccc(OC[C@H]3CCn4cc([N+](=O)[O-])nc4O3)cc2)CC1
The melting point of the first is lower: 88 to 96.5 °C for the first, 207 to 208 °C for the second.

Compared with `CC(C)(C)OC(=O)N1CCCC(Nc2cc(Cl)n[nH]c2=O)C1` (centres undefined), `CC(C)(C)OC(=O)NCCc1ccnc(-c2nc(=O)c3ccc(Cl)cc3s2)c1` is lower in melting point: 195 to 196 °C for the first, 168 to 169 °C for the second.

`Clc1ccc(Cc2nc(-c3ccccc3)nnc2NCCN2CCCCC2)cc1` and `Brc1ccc2nc(-c3ccccc3)cn2c1` cannot be ordered by melting point: 192 °C for the first, 192 to 194 °C for the second.

First: CC(Nc1ncccc1C#N)c1c(Cl)cccc1Cl (centres undefined)
Second: CC(=O)Oc1nsnc1-c1c(Cl)cccc1Cl
The melting point of the first is higher: 84.4 °C for the first, 56 to 59 °C for the second.

First: CCCCc1nc2cccc(C)c2c(=O)n1Cc1ccc(C2(C(=O)O)CC=CC2)s1
Second: Cc1cc(N2CCN(Cc3ccc(F)cc3)C2=O)sc1C(=O)NCc1cccnc1
The melting point of the first is higher: 150 to 151 °C for the first, 119 to 120 °C for the second.

Compared with `O=C1N=C(N2CCCCC2)SC1=Cc1cccc(-c2ccc(O)c(C34CC5CC(CC(C5)C3)C4)c2)c1`, `CC(C)N1CCN(c2ccc(-c3[nH]nc4c3C(=O)c3c(NC(=O)NN5CCOCC5)cccc3-4)cc2)CC1` is lower in melting point: 311 to 312 °C for the first, 253 °C for the second.

First: OCC12OC1CC(OCc1ccccc1)C2COCc1ccccc1 (centres undefined)
Second: O=C(O)COc1ccc(OCc2ccccc2)cc1OCc1ccccc1
The melting point of the first is lower: 60 to 62 °C for the first, 72 °C for the second.

First: CCOc1ccc2c(c1)C(C)(c1ccccc1Cl)C(=O)N2S(=O)(=O)c1ccc(C(=O)NC(C)(C)CF)cc1 (centres undefined)
Second: CCOc1ccc2c(c1)C(N)(c1ccccc1Cl)C(=O)N2 (centres undefined)
The melting point of the first is higher: 182 °C for the first, 173 to 175 °C for the second.

First: CCc1cc(C(=O)c2ccccc2Cl)c(-n2c(CNC(=O)c3cc4ccccc4[nH]3)nnc2C(C)C)s1
Second: CS(=O)(=O)c1ccc(Oc2cc(OCc3ccccc3)c3[nH]c(-c4ncc(CO)s4)cc3c2)cc1
The melting point of the first is higher: 209 to 211 °C for the first, 125 to 126 °C for the second.

Compared with `CC(=O)N1CC[C@H]2Cc3ccccc3[C@@H](c3ccccc3)N2CC1` (racemic), `O=S(c1ccccc1)c1ccc2c(c1)C(O)C(Br)CCO2` (centres undefined) is higher in melting point: 145 to 147 °C for the first, 147 to 149 °C for the second.

Compared with `O=C(O)CCCCCCCCNS(=O)(=O)c1ccc(Br)cc1`, `CC(=O)c1ccc(S(=O)(=O)NCC(F)(F)F)cc1` is higher in melting point: 124 to 125 °C for the first, 180 to 181 °C for the second.

First: Nc1cccc(-c2ccc(OC3CN(Cc4ccccn4)C3)c3ccccc23)n1
Second: CN(C)CCCOc1ccc(N(C(=O)c2ccc(Cl)cc2)c2ccccc2)cc1
The melting point of the first is higher: 97 to 120 °C for the first, 81.5 to 85.5 °C for the second.

First: Cc1ccnc2c([N+](=O)[O-])cc(F)cc12
Second: OCc1cnc2ccc(F)cc2c1O
The melting point of the first is lower: 139 to 141 °C for the first, 310 to 315 °C for the second.

First: Cc1cn2cc(Cl)ccc2n1
Second: O=C1CSCc2cc(Cl)ccc21
The melting point of the first is higher: 94 to 96 °C for the first, 79.5 to 82 °C for the second.

Compared with `Cc1cc(-c2cccc(C(=O)CC(=O)Nc3cc(-c4ccc(F)cc4)ccc3NC(=O)OC(C)(C)C)c2)on1`, `CCOC(=O)n1c(C(=O)c2ccc(F)cc2)c(NC(C)=O)c2ccc(Cl)cc21` is higher in melting point: 100 to 101 °C for the first, 196 to 198 °C for the second.

First: CCOP(=O)(OCC)C(C)(C)NC(=O)c1cccc(NC(=O)c2cccc([N+](=O)[O-])c2)c1
Second: CC(=O)Oc1ccc(C(=O)Nc2cc([N+](=O)[O-])ccc2C)cc1
The melting point of the first is lower: 120 to 121 °C for the first, 207 to 208 °C for the second.

First: O=C(Nc1ccc(-c2ncno2)cc1)Oc1ccc([N+](=O)[O-])cc1
Second: COC(=O)CCC(=O)c1ccc(-c2ccc(Br)cc2F)cc1
The melting point of the first is higher: 210 to 212 °C for the first, 94 to 95 °C for the second.

Compared with `CCCCC(=N)NC(=O)Nc1ccccc1OCc1ccccc1`, `Cc1ccc(S(=O)(=O)N(C)CC(=O)N[C@@H](Cc2ccccc2)C(=O)OCc2ccccc2)cc1` (Tos-[Sar]-Phe-OBn) is lower in melting point: 145 to 147 °C for the first, 80 to 82 °C for the second.

Compared with `COC(=O)C1(Cl)SC=CC1=O` (centres undefined), `COC(=O)C(OC)C(=O)Nc1cc(Cl)cc(Cl)c1` (centres undefined) is higher in melting point: 70 to 71 °C for the first, 116 to 118 °C for the second.

Compared with `COC(=O)c1nc(Br)cc(N=[N+]=[N-])c1Cl`, `CCOC(=O)c1cnc2ccc(OC)nc2c1Cl` is higher in melting point: 84 to 86 °C for the first, 98 to 100 °C for the second.

Compared with `O=c1ccc(S(=O)(=O)c2cc3ccccc3o2)n[nH]1`, `COc1cccc2c1CCC21OC(=O)c2ccccc21` (centres undefined) is lower in melting point: 210 to 211 °C for the first, 111 to 112 °C for the second.

First: C[C@H]1COc2c(N3C[C@@H]4CCOC[C@@]4(N)C3)c(F)cc3c(=O)c(C(=O)O)cn1c23
Second: CC(=O)NCC1CN(Cc2ccc(F)cc2)CCO1 (centres undefined)
The melting point of the first is higher: over 300 °C for the first, 120 to 122 °C for the second.

Compared with `O=C1Cc2c(OCCN3CCc4ccccc4C3)ccc(F)c2N1`, `CCCN1CCc2c(NC(C)=O)ccc(Br)c2C1` is lower in melting point: 230 to 235 °C for the first, 144 to 145 °C for the second.

First: COc1ccc(C(C)=O)c(OCCCC(=O)O)c1
Second: COc1ccc(CC(=O)CCCCCBr)cc1
The melting point of the first is higher: 127 to 129 °C for the first, 41 to 43 °C for the second.

Compared with `CCCCNc1cc(C(=O)O)cc(S(N)(=O)=O)c1Nc1ccccc1`, `Cc1cc(Cl)cc(NC(=O)Cc2ccc(O)cc2)c1` is lower in melting point: 230 to 231 °C for the first, 176 to 178 °C for the second.

Compared with `COCCOc1ncccc1S(N)(=O)=O`, `CCCCCS(=O)(=O)NC(=O)CC(C)c1ccc(OCCOC)cc1Oc1ncc(C(F)(F)F)cc1Cl` (centres undefined) is higher in melting point: 102 to 103 °C for the first, 137 °C for the second.

Going from `Cc1ccc(S(=O)(=O)N2Cc3sccc3-n3cccc3C2)cc1` to `Cc1cc(-c2cc(F)c(F)cc2-c2ccc(S(C)(=O)=O)cc2)ccc1Cl`, the melting point falls from 165 °C to 152 °C.

Compared with `CCOC(=O)c1cc(=O)c2c(C(C)C)cccc2[nH]1`, `COC(=O)C1=C(C(=O)OC)c2c([nH]c3ccccc23)CC1` is higher in melting point: 176 to 178 °C for the first, 249 °C for the second.

Compared with `CC(=O)Oc1cc(C(C)C)c(OC(C)=O)c(C(C)C)c1`, `CCC(CNC(=O)c1cc(C#N)c(Cl)cc1OC)NC(C)C` (centres undefined) is higher in melting point: 73.5 to 75 °C for the first, 103 to 105 °C for the second.

First: CCOC(=O)c1cnn(-c2ccc(OC)cc2)c1N
Second: CCOC(=O)C=Cc1ccc([N+](=O)[O-])c(C)c1
The melting point of the first is higher: 209 to 211 °C for the first, 90 to 92 °C for the second.

Compared with `O=C(CCl)NCc1c(O)c(I)cc2c1CCCC2`, `O=C(NCCCC1CCC2=C1CC=CC2)C(F)(F)F` (centres undefined) is lower in melting point: 119 to 125 °C for the first, 61 to 62 °C for the second.

First: O=C(NCc1ccc(C=NNO)cc1)C1Cc2ccccc2N1S(=O)(=O)c1ccc(-c2cccc(C(F)(F)F)c2)cc1 (centres undefined)
Second: CCc1nn2c(-c3cccc(C(F)(F)F)c3)c(C)cnc2c1C#N
The melting point of the first is lower: 110 to 115 °C for the first, 163 to 164 °C for the second.

First: CC(NC(Nc1cc(C(F)(F)F)cc(C(F)(F)F)c1)=C(C#N)S(=O)(=O)C(C)C)C(C)(C)C (centres undefined)
Second: COc1cc2c(cc1OS(N)(=O)=O)CC(C)(C)N(C(=O)c1cc(OC)c(OC)c(OC)c1)C2C (centres undefined)
The melting point of the first is higher: 177 to 180 °C for the first, 170 to 173 °C for the second.

First: CCOCc1nc2c(N)nc3cc(-n4ccnc4)ccc3c2n1CCCOC
Second: COc1cc2nc(-c3cccs3)cc(C(=O)O)c2cc1OC
The melting point of the first is lower: 168 to 169 °C for the first, 260 to 263 °C for the second.

First: CN1C(=O)NC(Cc2c[nH]c3ccccc23)C1=O (centres undefined)
Second: CN1CC(CCCl)Oc2ncc(-c3ccccc3)cc2C1=S (centres undefined)
The melting point of the first is higher: 207 to 210 °C for the first, 156 to 158 °C for the second.

Compared with `O=C1NC(=O)c2c1c(-c1ccccc1Cl)cc1sc3ccc(O)cc3c21`, `COc1cccc(C2=C(C#N)C(c3cccc4nonc34)c3c[nH]nc3N2)c1` (centres undefined) is lower in melting point: 311 to 313 °C for the first, 198 °C for the second.

Compared with `O=C(O)C1CCC(Nc2nccc(-n3nnc4c(I)cccc43)n2)CC1` (centres undefined), `COc1cccc(C2(O)CCC(=O)CC2)c1` is lower in melting point: 252 to 254 °C for the first, 105 to 108 °C for the second.

Compared with `BrCCc1cc(Br)c(CCBr)cc1Br`, `CCOc1nn(-c2ccc(C(F)(F)F)cn2)cc1CCCOc1cccc(CCC(=O)O)c1` is lower in melting point: 106 to 108 °C for the first, 88 to 89 °C for the second.

Compared with `CC(OCCc1ccc([N+](=O)[O-])cc1)OC1C(O)C(CO)OC1n1ccc(=O)[nH]c1=O` (centres undefined), `CSc1ccc(-c2nc(SC)c(C#N)c(=O)n2-c2ccc(C)cc2C)cc1` is higher in melting point: 162 °C for the first, 203 to 205 °C for the second.

Compared with `CCC(C)(C)c1c(OCc2ncnn2C)nn2c(-c3c(F)ccc(F)c3F)nncc12`, `CCCCCCCCCCNc1nc(NCC(O)C2CC(C)(C)NC(C)(C)C2)nc(NCC(O)C2CC(C)(C)NC(C)(C)C2)n1` (centres undefined) is lower in melting point: 122 to 125 °C for the first, 106 to 107 °C for the second.

For `CC12CCCC=C1CCC1C2CCC2(C)C(OC3CCCCO3)CCC12` (centres undefined), the melting point was 92 to 96 °C.
